From patent US11208422B2, “Substituted bridged diazepane derivatives and use thereof as TASK-1 and TASK-3 inhibitors” (Bayer Pharma Aktiengesellschaft, priority 2017, dated 2021)

Legend:
recombinant TASK-3 = recombinant TASK-3 (Homo sapiens (Human), UniProt Q9NPC2); experiment: Inhibition of recombinant TASK-3 in stably transfected CHO cells (KCl-induced depolarization, voltage-sensitive dye, FLIPR); type: cell-based; conditions: depolarization induced by 40 mM potassium chloride, some mean values from multiple determinations
Experimental: (§1) The compounds of the invention were tested here with administration of 40 mM of potassium chloride in the presence of a voltage-sensitive dye using the method described in detail in the following references [Whiteaker et al., Validation of FLIPR membrane potential dye for high-throughput screening of potassium channel modulators, J. Biomol. Screen. 6 (5), 305-312 (2001); Molecular Devices FLIPR Application Note: Measuring membrane potential using the FLIPR® membrane potential assay kit on Fluorometric Imaging Plate Reader (FLIPR®) systems, http://www.moleculardevices.com/reagents-supplies/assay-kits/ion-channels/flipr-membrane-potential-assay-kits]. The activity of the test substances was determined as their ability to inhibit a depolarization induced in the recombinant cells by 40 mM potassium chloride. The concentration which can block half of this depolarization is referred to as IC50.

recombinant TASK-1 = recombinant TASK-1 (Homo sapiens (Human), UniProt O14649); experiment: Inhibition of recombinant TASK-1 in stably transfected CHO cells (KCl-induced depolarization, voltage-sensitive dye, FLIPR); type: cell-based; conditions: depolarization induced by 40 mM potassium chloride, some mean values from multiple determinations
Experimental: as §1

Chain of recombinant TASK-3 (Q9NPC2 whole entry): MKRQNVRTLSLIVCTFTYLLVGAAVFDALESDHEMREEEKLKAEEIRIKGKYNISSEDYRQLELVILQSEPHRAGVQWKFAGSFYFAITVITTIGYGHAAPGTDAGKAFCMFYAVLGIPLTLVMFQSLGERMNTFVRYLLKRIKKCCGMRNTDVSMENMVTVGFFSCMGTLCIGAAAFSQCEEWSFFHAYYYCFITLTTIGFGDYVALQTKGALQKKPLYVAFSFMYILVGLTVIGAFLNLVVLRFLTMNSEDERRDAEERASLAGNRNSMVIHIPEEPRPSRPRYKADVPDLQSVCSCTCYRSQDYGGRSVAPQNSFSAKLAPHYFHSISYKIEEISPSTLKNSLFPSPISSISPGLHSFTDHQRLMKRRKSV
Chain of recombinant TASK-1 (O14649 whole entry): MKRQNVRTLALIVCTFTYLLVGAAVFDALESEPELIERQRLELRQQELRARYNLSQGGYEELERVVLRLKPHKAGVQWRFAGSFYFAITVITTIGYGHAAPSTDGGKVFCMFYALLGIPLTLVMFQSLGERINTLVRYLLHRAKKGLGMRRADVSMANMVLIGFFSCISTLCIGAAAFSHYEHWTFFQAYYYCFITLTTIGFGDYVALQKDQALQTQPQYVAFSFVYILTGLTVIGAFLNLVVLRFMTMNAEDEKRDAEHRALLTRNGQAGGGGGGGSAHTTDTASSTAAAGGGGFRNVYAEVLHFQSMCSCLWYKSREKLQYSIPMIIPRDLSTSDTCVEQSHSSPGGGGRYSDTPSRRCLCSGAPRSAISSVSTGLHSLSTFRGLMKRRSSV

Structure (SMILES) | IC50 (recombinant TASK-3) [nM] | IC50 (recombinant TASK-1) [nM]
COc1cccc(C(=O)N2C3CCC2CN(Cc2c(-c4ccc(Cl)cc4)nc4ccccn24)CC3)n1 (single isomer, unassigned) [Example 90, [3-{[2-(4-Chlorophenyl)imidazo[1,2-a]pyridin-3-yl]methyl}-3,9-diazabicyclo[4.2.1]non-9-yl](6-methoxypyridin-2-yl)methanone] | 2.8 | 43
COc1cccc(C(=O)N2C3CCC2CN(Cc2c(-c4ccc(Cl)cc4)nc4ccccn24)CC3)n1 (single isomer, unassigned) [Example 91, [3-{[2-(4-Chlorophenyl)imidazo[1,2-a]pyridin-3-yl]methyl}-3,9-diazabicyclo[4.2.1]non-9-yl](6-methoxypyridin-2-yl)methanone] | 5.5 | 290
COc1ccc(F)c(C(=O)N2CC3CCC2CN(Cc2c(-c4ccc(Cl)cc4)nc4ccccn24)C3)n1 (single isomer, unassigned) [Example 94, [3-{[2-(4-chlorophenyl)imidazo[1,2-a]pyridin-3-yl]methyl}-3,6-diazabicyclo[3.2.2]non-6-yl](3-fluoro-6-methoxypyridin-2-yl)methanone] | 110 | 3200
COc1cccc(C(=O)N2CC3CCC2CN(Cc2c(-c4ccc(Cl)cc4)nc4ccccn24)C3)n1 (single isomer, unassigned) [Example 95, [3-{[2-(4-chlorophenyl)imidazo[1,2-a]pyridin-3-yl]methyl}-3,6-diazabicyclo[3.2.2]non-6-yl](6-methoxypyridin-2-yl)methanone] | 710 | 4900
O=C(c1ccccc1F)N1C2CCC1CN(Cc1c(-c3ccc(Cl)cc3)nc3ncccn13)CC2 (single isomer, unassigned; (-)) [Example 81, (−)-[3-{[2-(4-chlorophenyl)imidazo[1,2-a]pyrimidin-3-yl]methyl}-3,9-diazabicyclo[4.2.1]non-9-yl](2-fluorophenyl)methanone] | 9.2 | 590
COc1cccc(C(=O)N2CCC3CCC2CN3Cc2c(-c3ccc(Cl)cn3)nc3ccccn23)n1 (centres unmarked) [Example 18] | 167 | 1600
COc1ccc(F)c(C(=O)N2CCC3CCC2CN3Cc2c(-c3ccc(Cl)cn3)nc3ccccn23)n1 (centres unmarked) [Example 19] | 580 | 13500
COc1ccc(Cl)c(C(=O)N2CCC3CCC2CN3Cc2c(-c3ccc(Cl)cn3)nc3ccccn23)n1 (centres unmarked) [Example 20] | 197 | 3350
COc1cccc(C(=O)N2CCC3CCC2CN3Cc2c(-c3ccc(Cl)cc3)nc3ncccn23)n1 (centres unmarked) [Example 21] | 140 | 18000
O=C(c1ccccc1F)N1CCC2CCC1CN2Cc1c(-c2ccc(Cl)cc2)nc2ncccn12 (centres unmarked) [Example 22] | 370 | 27000
COc1ccc(Cl)c(C(=O)N2CCC3CCC2CN3Cc2c(-c3ccc(Cl)cc3)nc3ncccn23)n1 (centres unmarked) [Example 23] | 24 | 3000
Nc1nonc1C(=O)N1CCC2CCC1CN2Cc1c(-c2ccc(Cl)cc2)nc2ncccn12 (centres unmarked) [Example 24] | 24 | 3100
O=C(c1ccccc1F)N1CCC2CCC1CN2Cc1c(-c2ccc(Cl)cc2)nc2ncccn12 (centres unmarked) [Example 25] | 11 | 1100
COc1cccc(C(=O)N2CCC3CCC2CN3Cc2c(-c3ccc(Cl)cc3)nc3ccccn23)n1 (centres unmarked) [Example 26] | 6.9 | 830
COc1ccc(F)c(C(=O)N2CCC3CCC2CN3Cc2c(-c3ccc(Cl)cc3)nc3ccccn23)n1 (centres unmarked) [Example 27] | 3 | 150
COc1ccc(Cl)c(C(=O)N2CCC3CCC2CN3Cc2c(-c3ccc(Cl)cc3)nc3ccccn23)n1 (centres unmarked) [Example 28] | 5.6 | 280
Nc1nonc1C(=O)N1CCC2CCC1CN2Cc1c(-c2ccc(Cl)cc2)nc2ccccn12 (centres unmarked) [Example 29] | 4.4 | 660
O=C(c1ccccc1F)N1CCC2CCC1CN2Cc1c(-c2ccc(Cl)cn2)nc2ccccn12 (centres unmarked) [Example 30] | 220 | 2300
O=C(c1ccccc1F)N1CCC2CCC1CN2Cc1c(-c2ccc(Cl)cn2)nc2ncccn12 (centres unmarked) [Example 31] | 47 | 910
COc1cccc(C(=O)N2CCC3CCC2CN3Cc2c(-c3ccc(Cl)cc3)nc3ncccn23)n1 (centres unmarked) [Example 32] | 4.1 | 130
COc1ccc(F)c(C(=O)N2CCC3CCC2CN3Cc2c(-c3ccc(Cl)cc3)nc3ncccn23)n1 (centres unmarked) [Example 33] | 110 | 2600
COc1ccc(Cl)c(C(=O)N2CCC3CCC2CN3Cc2c(-c3ccc(Cl)cc3)nc3ncccn23)n1 (centres unmarked) [Example 34] | 200 | 4100
Nc1nonc1C(=O)N1CCC2CCC1CN2Cc1c(-c2ccc(Cl)cc2)nc2ncccn12 (centres unmarked) [Example 35] | 500 | 24000
O=C(c1ccccc1F)N1CCC2CCC1CN2Cc1c(-c2ccc(Cl)cc2)nc2ccccn12 (centres unmarked) [Example 36] | 1000 | 30000
COc1cccc(C(=O)N2CCC3CCC2CN3Cc2c(-c3ccc(Cl)cc3)nc3ccccn23)n1 (centres unmarked) [Example 37] | 1000 | 30000
COc1ccc(F)c(C(=O)N2CCC3CCC2CN3Cc2c(-c3ccc(Cl)cc3)nc3ccccn23)n1 (centres unmarked) [Example 38] | 4 | 250

Structure (SMILES) | IC50 (recombinant TASK-3) [nM] | IC50 (recombinant TASK-1) [nM]
COc1ccc(Cl)c(C(=O)N2CCC3CCC2CN3Cc2c(-c3ccc(Cl)cc3)nc3ccccn23)n1 (centres unmarked) [Example 39] | 13 | 370
Nc1nonc1C(=O)N1CCC2CCC1CN2Cc1c(-c2ccc(Cl)cc2)nc2ccccn12 (centres unmarked) [Example 40] | 29 | 3300
COc1cccc(C(=O)N2CCC3CCC2CN3Cc2c(-c3ccc(C(C)C)cc3)nc3ncccn23)n1 (centres unmarked) [Example 41] | 160 | 2200
COc1ccc(Cl)c(C(=O)N2CCC3CCC2CN3Cc2c(-c3ccc(C(C)C)cc3)nc3ncccn23)n1 (centres unmarked) [Example 43] | 250 | 2500
CC(C)c1ccc(-c2nc3ncccn3c2CN2CC3CCC2CCN3C(=O)c2cccc(OC(F)F)n2)cc1 (centres unmarked) [Example 45] | 170 | 2900
CC(C)c1ccc(-c2nc3ncccn3c2CN2CC3CCC2CCN3C(=O)c2ccccc2F)cc1 (centres unmarked) [Example 46] | 1000 | 16000
CC(C)c1ccc(-c2nc3ncccn3c2CN2CC3CCC2CCN3C(=O)c2ccccc2F)cc1 (centres unmarked) [Example 47] | 180 | 3100
COc1cccc(C(=O)N2CCC3CCC2CN3Cc2c(-c3ccc(C(C)C)cc3)nc3ncccn23)n1 (centres unmarked) [Example 48] | 430 | 12000
COc1ccc(F)c(C(=O)N2CCC3CCC2CN3Cc2c(-c3ccc(C(C)C)cc3)nc3ncccn23)n1 (centres unmarked) [Example 49] | 540 | 5500
COc1ccc(Cl)c(C(=O)N2CCC3CCC2CN3Cc2c(-c3ccc(C(C)C)cc3)nc3ncccn23)n1 (centres unmarked) [Example 50] | 440 | 2500
CC(C)c1ccc(-c2nc3ncccn3c2CN2CC3CCC2CCN3C(=O)c2cccc(OC(F)F)n2)cc1 (centres unmarked) [Example 51] | 110 | 1100
CC(C)c1ccc(-c2nc3ncccn3c2CN2CC3CCC2CCN3C(=O)C2CCCC2)cc1 (centres unmarked) [Example 52] | 140 | 3800
COc1ccc(F)c(C(=O)N2CCC3CCC(C2)N3Cc2c(-c3ccc(C(C)C)cc3)nc3ncccn23)n1 (centres unmarked) [Example 53] | 380 | 1300
COc1ccc(Cl)c(C(=O)N2CCC3CCC(C2)N3Cc2c(-c3ccc(C(C)C)cc3)nc3ncccn23)n1 (centres unmarked) [Example 54] | 290 | 780
COc1cccc(C(=O)N2CCC3CCC(C2)N3Cc2c(-c3ccc(C(C)C)cc3)nc3ncccn23)n1 (centres unmarked) [Example 55] | 1000 | 4000
CC(C)c1ccc(-c2nc3ncccn3c2CN2C3CCC2CN(C(=O)c2cccc(OC(F)F)n2)CC3)cc1 (centres unmarked) [Example 56] | 1000 | 8500
CC(C)c1ccc(-c2nc3ncccn3c2CN2C3CCC2CN(C(=O)C2CCCC2)CC3)cc1 (centres unmarked) [Example 57] | 2000 | 6200
COc1ccc(F)c(C(=O)N2CCC3CCC(C2)N3Cc2c(-c3ccc(C(C)C)cc3)nc3ncccn23)n1 (centres unmarked) [Example 58] | 920 | 2900
COc1ccc(Cl)c(C(=O)N2CCC3CCC(C2)N3Cc2c(-c3ccc(C(C)C)cc3)nc3ncccn23)n1 (centres unmarked) [Example 59] | 680 | 1100
COc1cccc(C(=O)N2CCC3CCC(C2)N3Cc2c(-c3ccc(C(C)C)cc3)nc3ncccn23)n1 (centres unmarked) [Example 60] | 1000 | 5200
CC(C)c1ccc(-c2nc3ncccn3c2CN2C3CCC2CN(C(=O)c2cccc(OC(F)F)n2)CC3)cc1 (centres unmarked) [Example 61] | 1000 | 9400
CC(C)c1ccc(-c2nc3ncccn3c2CN2C3CCC2CN(C(=O)C2CCCC2)CC3)cc1 (centres unmarked) [Example 62] | 1000 | 8400
CC(C)c1ccc(-c2nc3ncccn3c2CN2C3CCC2CN(C(=O)c2ccccc2F)CC3)cc1 (centres unmarked) [Example 63] | 800 | 8400
CC(C)c1ccc(-c2nc3ncccn3c2CN2C3CCC2CN(C(=O)c2ccccc2F)CC3)cc1 (centres unmarked) [Example 64] | 1800 | 7200
O=C(c1cccc(OC(F)(F)F)n1)N1CCC2CCC1CN2Cc1c(-c2ccc(Cl)cc2)nc2ncccn12 (centres unmarked) [Example 65] | 220 | 1400
O=C(c1cccc(OC(F)(F)F)n1)N1CCC2CCC1CN2Cc1c(-c2ccc(Cl)cc2)nc2ncccn12 (centres unmarked) [Example 66] | 19 | 180
